From paper PMC9574867, “Discovery and Characterization of Synthesized and FDA-Approved Inhibitors of Clostridial and Bacillary Collagenases” (Journal of Medicinal Chemistry, 2022)
≈ marks a conversion by molar mass, not a printed value. Entries after “also recorded” stand apart in the source; their conditions may differ. Read-outs that look alike come from different tables or passages of the source.

Key:
MMP-8 = target: MMP-8; parameters: method as in PMID 22529049, PMID 12217351, PMID 12217351; conditions: known inhibitors, Figure 1a; cited from earlier work
ColH = conditions: Figure 1b, cited from earlier work
in vitro [1] = conditions: human, NHDF cells (normal human dermal fibroblasts)
ColH-PD [2] = target: T1, ColH-PD (Hathewaya histolytica, UniProt Q46085); assay type: biochemical, C. histolyticum
in vitro [3] = conditions: human, HepG2 cells (hepatocellular carcinoma)
HDAC-8 = target: T2, HDAC-8 (Homo sapiens, UniProt Q9BY41); experiment: Human off-target inhibition, HDAC-8; assay type: biochemical
T2 sequence (Q9BY41 1-377): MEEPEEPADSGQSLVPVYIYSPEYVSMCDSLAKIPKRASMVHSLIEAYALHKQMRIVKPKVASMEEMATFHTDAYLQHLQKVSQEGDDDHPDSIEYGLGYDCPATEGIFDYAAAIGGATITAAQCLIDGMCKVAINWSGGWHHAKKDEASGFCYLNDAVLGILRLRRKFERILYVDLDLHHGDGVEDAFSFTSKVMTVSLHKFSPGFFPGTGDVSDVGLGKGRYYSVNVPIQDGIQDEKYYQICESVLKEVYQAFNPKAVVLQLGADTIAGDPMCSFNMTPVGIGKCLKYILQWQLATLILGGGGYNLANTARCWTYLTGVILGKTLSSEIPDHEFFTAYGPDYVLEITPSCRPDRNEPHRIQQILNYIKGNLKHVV
Description: (§1) To assess the selectivity of the compounds over human MMPs and on other bacterial collagenases, selected compounds were tested against ColG-CU and ColH-PD from C. histolyticum and ColA-CU from B. cereus strain ATCC14579. In addition, the compounds were tested on catalytic domains of three human MMPs, which are characterized by different depths of the S1′ binding pocket (MMP-1 (shallow), −2 (intermediate), and −3 (deep)). They were also tested against other important human off-targets, which are involved in gene expression and the processing of TNF-α; these include HDAC-3, -8, TACE (ADAM-17),[33],[34] and COX-1.

[4] = test system: B. cereus collagenases released in the NHDF infection model; assay type: cell-based, B. cereus AH187
MMP-2 = target: T3, MMP-2 (Homo sapiens, UniProt P08253); experiment: MMP inhibition assay, MMP-2; assay type: biochemical
T3 construct: catalytic domains of three human MMPs; purchased Sigma-Aldrich
Description: as §1
(§2) The MMP inhibition assay (Sigma-Aldrich, Saint Louise, MO) was performed as previously reported and in accordance with the manufacturer’s instructions. The fluorescence signals were measured in a CLARIOstar plate reader (BMG LABTECH, Ortenberg, Germany) at a concentration of 100 μM.

ColQ1-CU [5] = target: T4, ColQ1-CU (Bacillus cereus, UniProt B9J3S4); assay type: biochemical, B. cereus; conditions: rapid dilution
B. cereus AH187 = experiment: B. cereus growth inhibition assay; assay type: cell-based; conditions: Bacillus cereus, read-out: MIC50 (µM) AH187
ColA-CU [6] = target: T5, ColA-CU (Bacillus cereus, UniProt Q81BJ6); assay type: biochemical, B. cereus; conditions: rapid dilution
ColA-CU [7] = target: T5, ColA-CU; experiment: biochemical; assay type: biochemical, B. cereus strain ATCC14579; conditions: for inhibition at 100 µM: read-out: Percent inhibition of ColA-CU
TACE (ADAM-17) = TACE (ADAM-17) (Homo sapiens, UniProt P78536); experiment: Human off-target inhibition, TACE; assay type: biochemical
Description: as §1

ColQ1-CU [8] = target: T4, ColQ1-CU; experiment: biochemical; parameters: species or system B. cereus strain Q1
[9] = test system: NHDF cells infected with B. cereus; experiment: NHDF infection model, cell morphology/attachment and fibrillar collagen (picrosirius red); assay type: cell-based, human
MMP-3 = target: T6, MMP-3 (Homo sapiens, UniProt P08254); experiment: MMP inhibition assay, MMP-3; assay type: biochemical
T6 construct: catalytic domains of three human MMPs; purchased Sigma-Aldrich
Description: as §1, §2

ColQ1-FL = ColQ1-FL (Bacillus cereus, UniProt B9J3S4); assay type: biochemical; conditions: 1 mg/mL Col I, 50 ng ColQ1-FL, SDS-PAGE
MMP-1 = target: T7, MMP-1 (Homo sapiens, UniProt P03956); experiment: MMP inhibition assay, MMP-1; assay type: biochemical
T7 construct: catalytic domains of three human MMPs; purchased Sigma-Aldrich
T7 sequence (P03956 98-276 limits assumed): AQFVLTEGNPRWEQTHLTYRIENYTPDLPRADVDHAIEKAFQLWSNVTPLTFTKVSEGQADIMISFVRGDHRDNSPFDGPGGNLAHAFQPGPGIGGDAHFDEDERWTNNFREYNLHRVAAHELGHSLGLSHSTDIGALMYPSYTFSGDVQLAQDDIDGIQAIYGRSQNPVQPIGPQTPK
Description: as §1, §2

in vitro [10] = conditions: human, HEK293 cells (embryonal kidney)
ColH-PD [11] = target: T1, ColH-PD; experiment: biochemical; assay type: biochemical, C. histolyticum; conditions: for inhibition at 100 µM: read-out: Percent inhibition of ColH-PD
in vitro [12] = conditions: dog, MDCK II cells (Madin–Darby canine kidney II)
[13] = Stability of 27 with LC-MS in DMEM medium; assay type: physicochemical; conditions: 200 μM in DMEM, 37 °C, 5 h, 5% CO2, LC-MS
Description: We also examined the hydroxamate compounds 27, 28, 29, 31, 32, and 33. […] Intrigued by the results of the hydroxamate compounds, we investigated their stability with LC-MS in the conditions of the NHDF infection model to obtain a potential explanation for the observed findings. We used 27 as a representative example for this compound class.
After the incubation, 2 μL of the compound was transferred to LC-MS vials containing 200 μL of acetonitrile and LC-MS spectra were measured. Three controls were included: (i) 27 in DMEO, (ii) 27 in DMEM without incubation, and (iii) DMEM medium.

ColG-CU = ColG-CU (Hathewaya histolytica, UniProt Q9X721); experiment: biochemical; assay type: biochemical, C. histolyticum; conditions: for inhibition at 100 µM: read-out: Percent inhibition of ColG-CU
HDAC-3 = HDAC-3 (Homo sapiens, UniProt O15379); experiment: Human off-target inhibition, HDAC-3; assay type: biochemical
Description: as §1

ColQ1-CU [14] = target: T4, ColQ1-CU; assay type: binding, B. cereus; conditions: intact protein HPLC-MS, overnight treatment
[15] = test system: Galleria mellonella larvae; experiment: Galleria mellonella larvae treated with compound only in PBS; assay type: in vivo; conditions: no bacteria
Description: Figure 8 Survival analysis of Galleria mellonella larvae treated with Bacillus cereus AH187 with and without 14 and tiludronate disodium. Each curve represents results of three independent experiments; the statistical difference between groups treated with 100, 50, and 25 μM of compound 14 and B. cereus AH187 and with the group treated only with B. cereus AH187 is p < 0.0001, p = 0.0039, and p = 0.0173, respectively. The statistical difference between groups treated with 100 μM tiludronate disodium and with B. cereus AH187 is p = 0.0032 (log-rank test). The survival rate for the larvae treated with compound 14 and tiludronate disodium in PBS was 100%.
G. mellonella larvae were purchased from a fishing store. Injections were carried out using an LA120 syringe pump (Landgraf Laborsysteme, Langenhagen, Germany) equipped with 1 mL Injekt-F tuberculin syringes (B. Braun, Melsungen, Germany) and Sterican 0.30 × […], 30 G × 1.5 needles (B. Braun). The larvae were divided into five groups depending on their treatment: (i) sterile PBS, (ii) no injection, (iii) only compound, (iv) BC AH187 bacterial suspension, and (v) BC AH187 bacterial suspension with compound. Larvae were incubated at 37 °C for 3 days and inspected twice daily. The total larvae used in all three experiments were 40 larvae per group.

COX-1 = COX-1 (Homo sapiens, UniProt P23219); experiment: Human off-target inhibition, COX-1; assay type: biochemical
Description: as §1

[16] = test system: B. cereus AH187 infection; assay type: in vivo, Galleria mellonella

Chain of ColG-CU (Q9X721 111-786): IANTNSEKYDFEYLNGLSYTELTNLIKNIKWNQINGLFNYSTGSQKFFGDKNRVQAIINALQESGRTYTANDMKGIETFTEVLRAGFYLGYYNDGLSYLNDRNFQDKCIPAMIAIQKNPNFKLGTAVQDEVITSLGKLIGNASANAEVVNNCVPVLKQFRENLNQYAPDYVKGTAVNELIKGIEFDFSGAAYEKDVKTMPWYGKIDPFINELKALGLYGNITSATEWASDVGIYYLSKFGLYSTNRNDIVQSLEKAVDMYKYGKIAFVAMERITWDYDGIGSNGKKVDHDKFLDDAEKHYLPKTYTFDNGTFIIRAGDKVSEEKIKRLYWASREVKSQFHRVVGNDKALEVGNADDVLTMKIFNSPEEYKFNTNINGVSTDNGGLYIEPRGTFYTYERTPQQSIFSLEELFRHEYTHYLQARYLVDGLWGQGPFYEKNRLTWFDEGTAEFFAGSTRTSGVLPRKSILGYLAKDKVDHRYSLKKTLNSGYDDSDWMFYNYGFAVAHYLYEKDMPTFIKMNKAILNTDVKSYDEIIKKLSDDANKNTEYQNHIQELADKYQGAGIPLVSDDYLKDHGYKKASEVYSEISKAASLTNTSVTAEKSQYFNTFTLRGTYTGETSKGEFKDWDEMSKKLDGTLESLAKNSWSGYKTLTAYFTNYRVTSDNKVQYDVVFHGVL
T4 sequence (B9J3S4 94-765 limits assumed): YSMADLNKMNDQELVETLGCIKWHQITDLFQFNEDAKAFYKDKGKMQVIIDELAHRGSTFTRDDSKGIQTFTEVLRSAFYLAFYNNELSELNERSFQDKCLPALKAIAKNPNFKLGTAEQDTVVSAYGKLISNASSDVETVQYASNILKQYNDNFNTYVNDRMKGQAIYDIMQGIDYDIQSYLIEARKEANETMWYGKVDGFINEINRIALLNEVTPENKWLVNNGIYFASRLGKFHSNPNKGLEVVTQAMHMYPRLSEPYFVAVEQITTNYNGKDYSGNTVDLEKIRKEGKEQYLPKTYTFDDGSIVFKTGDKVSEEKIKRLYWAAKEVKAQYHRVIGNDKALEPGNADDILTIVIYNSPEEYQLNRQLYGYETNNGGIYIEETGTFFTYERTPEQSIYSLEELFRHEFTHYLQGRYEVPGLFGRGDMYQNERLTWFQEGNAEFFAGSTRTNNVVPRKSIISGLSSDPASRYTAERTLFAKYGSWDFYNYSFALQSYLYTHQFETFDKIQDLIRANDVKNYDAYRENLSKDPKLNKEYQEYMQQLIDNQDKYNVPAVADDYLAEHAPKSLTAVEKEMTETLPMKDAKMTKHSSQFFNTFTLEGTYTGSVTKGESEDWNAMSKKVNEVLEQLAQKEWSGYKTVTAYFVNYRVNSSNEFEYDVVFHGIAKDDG
T5 sequence (Q81BJ6 93-764): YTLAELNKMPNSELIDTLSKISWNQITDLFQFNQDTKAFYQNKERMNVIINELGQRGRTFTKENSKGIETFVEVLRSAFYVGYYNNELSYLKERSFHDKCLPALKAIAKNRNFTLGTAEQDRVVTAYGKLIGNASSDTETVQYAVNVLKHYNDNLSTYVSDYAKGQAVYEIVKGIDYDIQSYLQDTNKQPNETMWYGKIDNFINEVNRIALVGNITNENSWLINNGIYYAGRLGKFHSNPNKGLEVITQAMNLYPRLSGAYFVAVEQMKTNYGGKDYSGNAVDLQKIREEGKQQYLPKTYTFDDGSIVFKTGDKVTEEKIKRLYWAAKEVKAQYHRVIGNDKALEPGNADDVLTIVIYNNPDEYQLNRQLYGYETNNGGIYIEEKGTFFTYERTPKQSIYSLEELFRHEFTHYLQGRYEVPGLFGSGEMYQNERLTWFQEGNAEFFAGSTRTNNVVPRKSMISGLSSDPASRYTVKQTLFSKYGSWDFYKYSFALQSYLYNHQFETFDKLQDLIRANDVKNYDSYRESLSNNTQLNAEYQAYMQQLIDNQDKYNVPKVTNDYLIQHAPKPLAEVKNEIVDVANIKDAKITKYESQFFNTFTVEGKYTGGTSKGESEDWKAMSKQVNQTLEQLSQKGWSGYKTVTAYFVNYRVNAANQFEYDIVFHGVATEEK
T1 sequence (Q46085 331-721 limits assumed): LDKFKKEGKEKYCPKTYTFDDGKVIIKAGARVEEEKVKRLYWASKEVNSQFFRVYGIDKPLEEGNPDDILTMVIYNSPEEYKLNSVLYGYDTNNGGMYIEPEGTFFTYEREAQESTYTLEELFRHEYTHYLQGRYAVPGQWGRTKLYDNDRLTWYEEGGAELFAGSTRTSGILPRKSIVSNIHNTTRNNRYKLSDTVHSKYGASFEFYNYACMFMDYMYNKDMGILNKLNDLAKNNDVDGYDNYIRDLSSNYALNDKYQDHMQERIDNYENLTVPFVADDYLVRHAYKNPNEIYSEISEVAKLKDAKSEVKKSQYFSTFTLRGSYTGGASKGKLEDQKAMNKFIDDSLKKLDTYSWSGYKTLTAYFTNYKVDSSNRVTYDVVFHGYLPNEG
Chain of HDAC-3 (O15379 whole entry): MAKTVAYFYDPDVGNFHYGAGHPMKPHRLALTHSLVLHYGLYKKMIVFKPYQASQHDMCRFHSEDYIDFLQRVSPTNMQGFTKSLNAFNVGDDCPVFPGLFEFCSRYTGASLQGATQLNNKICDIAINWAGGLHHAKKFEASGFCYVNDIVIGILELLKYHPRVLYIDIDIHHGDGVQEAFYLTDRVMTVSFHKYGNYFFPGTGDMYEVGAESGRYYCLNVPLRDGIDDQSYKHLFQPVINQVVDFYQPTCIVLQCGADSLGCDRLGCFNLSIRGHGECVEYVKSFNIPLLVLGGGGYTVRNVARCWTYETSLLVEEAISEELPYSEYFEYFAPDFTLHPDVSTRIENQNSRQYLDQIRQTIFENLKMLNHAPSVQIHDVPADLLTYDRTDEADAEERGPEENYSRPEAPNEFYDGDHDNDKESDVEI
Chain of HDAC-3 (Q9Y618 395-489 partner limits assumed): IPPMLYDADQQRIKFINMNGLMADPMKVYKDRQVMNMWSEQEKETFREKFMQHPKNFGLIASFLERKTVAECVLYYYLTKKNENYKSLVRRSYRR
T6 sequence (P08254 100-272 limits assumed): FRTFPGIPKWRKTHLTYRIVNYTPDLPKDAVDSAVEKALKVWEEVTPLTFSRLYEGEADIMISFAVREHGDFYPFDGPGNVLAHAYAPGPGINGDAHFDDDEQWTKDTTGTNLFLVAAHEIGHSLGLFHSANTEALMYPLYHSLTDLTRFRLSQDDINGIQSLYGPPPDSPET
Chain of TACE (ADAM-17) (P78536 215-824): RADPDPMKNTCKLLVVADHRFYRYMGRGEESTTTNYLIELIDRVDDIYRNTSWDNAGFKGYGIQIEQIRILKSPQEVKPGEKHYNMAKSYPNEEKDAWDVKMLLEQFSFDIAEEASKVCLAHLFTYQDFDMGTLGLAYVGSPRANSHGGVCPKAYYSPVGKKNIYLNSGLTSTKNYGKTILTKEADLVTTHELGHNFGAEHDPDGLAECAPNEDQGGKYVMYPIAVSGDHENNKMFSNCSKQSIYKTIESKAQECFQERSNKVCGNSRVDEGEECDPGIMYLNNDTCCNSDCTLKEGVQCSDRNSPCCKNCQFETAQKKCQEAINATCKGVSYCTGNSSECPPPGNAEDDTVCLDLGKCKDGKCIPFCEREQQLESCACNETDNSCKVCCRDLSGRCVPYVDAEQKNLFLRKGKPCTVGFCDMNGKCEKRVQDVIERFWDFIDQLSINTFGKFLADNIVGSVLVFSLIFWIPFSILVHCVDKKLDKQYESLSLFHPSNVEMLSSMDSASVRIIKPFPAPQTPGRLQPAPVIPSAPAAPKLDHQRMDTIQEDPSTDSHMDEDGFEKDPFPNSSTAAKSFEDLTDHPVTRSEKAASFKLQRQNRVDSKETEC
T3 sequence (P08253 110-444 limits assumed): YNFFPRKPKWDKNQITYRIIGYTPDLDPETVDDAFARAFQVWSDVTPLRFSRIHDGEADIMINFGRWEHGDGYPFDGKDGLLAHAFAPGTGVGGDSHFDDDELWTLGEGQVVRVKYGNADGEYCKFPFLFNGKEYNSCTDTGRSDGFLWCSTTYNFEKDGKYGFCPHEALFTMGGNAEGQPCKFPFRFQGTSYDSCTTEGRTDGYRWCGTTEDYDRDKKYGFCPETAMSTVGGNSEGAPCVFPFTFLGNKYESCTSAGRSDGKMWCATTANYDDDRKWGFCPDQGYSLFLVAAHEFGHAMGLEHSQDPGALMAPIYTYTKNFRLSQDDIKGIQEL
Chain of COX-1 (P23219 24-599): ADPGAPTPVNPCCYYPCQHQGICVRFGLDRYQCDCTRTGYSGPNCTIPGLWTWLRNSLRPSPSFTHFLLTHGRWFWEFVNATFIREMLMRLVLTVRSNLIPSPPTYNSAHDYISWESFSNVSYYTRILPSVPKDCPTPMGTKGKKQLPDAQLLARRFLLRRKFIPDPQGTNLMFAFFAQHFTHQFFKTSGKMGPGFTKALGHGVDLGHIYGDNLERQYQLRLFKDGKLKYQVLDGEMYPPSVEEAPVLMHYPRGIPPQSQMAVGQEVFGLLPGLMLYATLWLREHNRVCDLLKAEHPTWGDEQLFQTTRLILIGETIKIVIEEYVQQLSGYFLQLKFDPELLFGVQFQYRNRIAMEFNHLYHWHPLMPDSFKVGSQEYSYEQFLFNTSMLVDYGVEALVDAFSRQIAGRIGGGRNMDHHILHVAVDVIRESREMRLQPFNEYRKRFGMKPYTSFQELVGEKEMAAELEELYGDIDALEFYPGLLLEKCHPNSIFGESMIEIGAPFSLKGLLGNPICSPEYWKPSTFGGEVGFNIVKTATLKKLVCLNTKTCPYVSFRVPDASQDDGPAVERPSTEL

In the case of `CC(NC(=O)C(Cc1ccccc1)NC(=O)NS(=O)(=O)c1ccc(F)cc1)C(=O)Nc1nnc(S)s1` (stereo not drawn) [Compound 3], the Ki (MMP-8) is listed as 0.1 µM.
For `CC(=O)c1ccc(NC(=O)CS)cc1` [Compound 4b], the IC50 (ColH; recently identified inhibitors) is listed as 0.017 µM.
In the case of `CC(=O)c1ccc(N2C(=O)CC(S)C2=O)cc1` (stereo not drawn) [Compound 5], the “% of inhibition at 100 μM (ColH)” value (ColH; 100 μM) is listed as 96%.
With `CC(=O)Nc1ccccc1OCc1cn(CCNC(=O)C(CC(C)C)C(=O)NO)nn1` (stereo not drawn) [Compound 27, N-[2-[4-[(2-Acetamidophenoxy)methyl]triazol-1-yl]ethyl]-2-(hydroxycarbamoyl)-4-methyl-pentanamide] the IC50 (in vitro [1]) was over 200 µM, the “Reversibility of inhibition, ColH” value (ColH-PD [2]) was “rapidly reversible inhibitors” and the IC50 (in vitro [3]) was over 100 µM. For the same molecule, the IC50 (HDAC-8) was over 100 µM, the “Inhibitory effect on gelatinolytic activity of secreted collagenases” value [4] was “no inhibitory effect on the collagenase in the zymography at all tested concentrations; also recorded: no inhibition of the collagenase in the gelatin zymography was detected” and the IC50 (MMP-2) was over 100 µM. The “Reversibility of inhibition, ColQ1-CU” value (ColQ1-CU [5]) was “rapidly reversible inhibitors”, the MIC50 (B. cereus AH187; AH187, BHI medium, 37 °C, 48 h, 200–3 μM) was 200 µM (≈ 86.5 µg/mL) and the “Reversibility of inhibition, ColA-CU” value (ColA-CU [6]) was “rapidly reversible inhibitors”. The Ki (ColA-CU [7]) was 3.4 ± 4 µM, the inhibition at 100 µM (ColA-CU [7]) was 93 ± 2% and the IC50 (TACE (ADAM-17)) was over 100 µM. For the same molecule, the IC50 (ColQ1-CU [8]) was 1.2 ± 0.1 µM, the Ki (ColQ1-CU [8]) was 0.1 ± 0.02 µM and the inhibition at 100 µM (ColQ1-CU [8]; read-out: % Inhibition (ColQ1-CU) Mean) was 97 ± 2%. The “Effect on cell morphology and ECM collagen content of infected NHDF cells” value ([9]; B. cereus infection, 5 h) was “neither able to rescue cell morphology nor able to maintain the collagen content of the ECM”, the IC50 (MMP-3) was over 100 µM and the “Concentration above which Col I chains were maintained” value (ColQ1-FL) was over 0.8 µM. For the same molecule, the IC50 (MMP-1) was over 100 µM, the IC50 (in vitro [10]) was over 100 µM and the Ki (ColH-PD [11]) was 11.6 ± 0.4 µM. The inhibition at 100 µM (ColH-PD [11]) was 84 ± 2%, the IC50 (in vitro [12]) was over 200 µM and the “Stability under NHDF infection assay conditions” value [13] was “no compound degradation; also recorded: confirmed, however, the stability”. The Ki (ColG-CU) was 31 ± 1 µM, the inhibition at 100 µM (ColG-CU) was 71 ± 7% and the IC50 (HDAC-3) was over 100 µM.
In the case of `CNC(=O)[C@H](Cc1c[nH]c2ccccc12)NC(=O)[C@@H](CC(=O)NO)CC(C)C` [Ilomastat, reference compound], the “Covalent modification of ColQ1-CU” value (ColQ1-CU [14]) is reported as “No molecular masses displayed a mass shift indicating a covalently bound inhibitor”.
For `O=P([O-])(O)C(Sc1ccc(Cl)cc1)P(=O)([O-])O.[Na+].[Na+]` [Tiludronate disodium, reference compound], the “Survival rate of larvae treated with compound in PBS” value [15] was 100%, the IC50 (HDAC-8) was over 100 µM and the “Concentration giving complete inhibition of gelatinolytic activity” value [4] was 100 µM. For the same molecule, the IC50 (MMP-2) was over 100 µM, the MIC50 (B. cereus AH187; AH187, 48 h) was 200 µM and the IC50 (COX-1) was over 100 µM. It also gave an inhibition at 100 µM (ColA-CU [7]) of 72 ± 2%, an IC50 (TACE (ADAM-17)) of over 100 µM and an inhibition at 100 µM (ColQ1-CU [8]) of 63 ± 3%. The “Increase in survival of infected larvae” value ([16]; 100 μM) was 40%, the “Survival of infected larvae vs control without inhibitor” value ([16]; 37 °C, 3 days) was “ameliorated the survival of the larvae in a dose-dependent manner” and the “Concentration showing dose-dependent effects on NHDF morphology, fibrillar ECM collagen content and LDH release” value [9] was at least 100 μM. The IC50 (MMP-3) was over 100 µM, the IC50 (MMP-1) was 50 ± 10 µM and the inhibition at 100 µM (ColH-PD [11]) was 91 ± 2%. It also gave an inhibition at 100 µM (ColG-CU) of 28 ± 7% and an IC50 (HDAC-3) of over 100 µM.
